How the values were obtained:
[1] = biological target: T1, BTK (Homo sapiens, UniProt Q06187); assay: Cell Degradation: BTK degradation in TMD-8 cells, HTRF assay; assay type: cell-based; conditions: 6 h treatment, IC50 (DC50) of BTK degradation
T1 construct: High control=Cell group with added DMSO and without compound, indicating microplate readings without BTK degradation; endogenous in cells; host or cells: TMD-8 cells
Procedure: TMD-8 cells are treated with compounds in 0.2% DMSO, dilution is done according to the following protocol: (1) make 500× stock solution in DMSO from 1 mM by 6-fold dilution, total 8 doses were included; (2) make 2× solution in cell culture medium by transferring 0.5 μl 500× stock solution into 125 μl medium; (3) 15 μl of 2× solution is added to cells and incubate for 6 h.
After 6 h treatment, add […] 4×lysis buffer to each well; seal the plate and incubate 30 min at room temperature on a plate shaker; Once the cells are lysed, 16 μL of cell lysate are transferred to a PE 384-well HTRF detection plate; 4 μL of pre-mixed HTRF antibodies are added to each well; Cover the plate with a plate sealer, spin 1000 rpm for 1 min, Incubate overnight at room temperature; Read on BMG PheraStar with HTRF protocol (337 nm-665 nm-620 nm).
The inhibition (degradation) percentage of the compound was calculated by the following equation: Inhibition percentage of Compound=100-100× (Signal-low control)/(High control-low control), wherein signal=each test compound group
Dmax is the maximum percentage of inhibition (degradation).
The IC50 (DC50) value of a compound can be obtained by fitting the following equation
Y=Bottom+(TOP-Bottom)/(1+((IC50/X)^hillslope))
(§1) Wherein, X and Y are known values, and IC50, Hillslope, Top and Bottom are the parameters obtained by fitting with software. Y is the inhibition percentage (calculated from the equation), X is the concentration of the compound; IC50 is the concentration of the compound when the 50% inhibition is reached. The smaller the IC50 value is, the stronger the inhibitory ability of the compound is. Vice versa, the higher the IC50 value is, the weaker the ability the inhibitory ability of the compound is; Hillslope represents the slope of the fitted curve, generally around 1 *; Bottom represents the minimum value of the curve obtained by data fitting, which is generally 0%±20%; Top represents the maximum value of the curve obtained by data fitting, which is generally 100%±20%. The experimental data were fitted by calculating and analyzing with Dotmatics data analysis software.

[2] = test system: HEK-293 cells; assay: HEK-293 Cytotoxicity Assay (CellTiter-Glo); assay type: cell-based; conditions: Homo sapiens, HEK293, 72 h incubation, CellTiter-Glo luminescence
Procedure: HEK-293 Cytotoxicity Assay
HEK-293 cells are treated with compounds diluted in 0.2% DMSO, dilution is done according to the following protocol: (1) make 500× stock solution in DMSO from 5 mM by 4-fold dilution, total 8 doses were included; (2) make 2× solution in cell culture medium by transferring 0.5 ul 500× stock solution into 125 ul medium; (3) 50 ul of 2× solution is added to cells and incubate for 72 h.
Add 25 μl of the CellTiter-Glo®Reagent [I (Promega)—Cat No. G7572] to each well in the 96-well plate. Mix contents for 2 minutes on an orbital shaker to induce cell lysis. Allow the plate to incubate at room temperature for 10 minutes to stabilize luminescent signal. Record luminescence on BMG PheraStar with luminescence protocol.
as §1, with “The IC50 value of a compound can be obtained by fitting the following equation. Y=Bottom+(TOP−Bottom)/(1+((IC50/X)^hillslope)) Wherein,” for “Wherein,”, “1*;” for “1 *;”

T1 sequence (Q06187 whole entry): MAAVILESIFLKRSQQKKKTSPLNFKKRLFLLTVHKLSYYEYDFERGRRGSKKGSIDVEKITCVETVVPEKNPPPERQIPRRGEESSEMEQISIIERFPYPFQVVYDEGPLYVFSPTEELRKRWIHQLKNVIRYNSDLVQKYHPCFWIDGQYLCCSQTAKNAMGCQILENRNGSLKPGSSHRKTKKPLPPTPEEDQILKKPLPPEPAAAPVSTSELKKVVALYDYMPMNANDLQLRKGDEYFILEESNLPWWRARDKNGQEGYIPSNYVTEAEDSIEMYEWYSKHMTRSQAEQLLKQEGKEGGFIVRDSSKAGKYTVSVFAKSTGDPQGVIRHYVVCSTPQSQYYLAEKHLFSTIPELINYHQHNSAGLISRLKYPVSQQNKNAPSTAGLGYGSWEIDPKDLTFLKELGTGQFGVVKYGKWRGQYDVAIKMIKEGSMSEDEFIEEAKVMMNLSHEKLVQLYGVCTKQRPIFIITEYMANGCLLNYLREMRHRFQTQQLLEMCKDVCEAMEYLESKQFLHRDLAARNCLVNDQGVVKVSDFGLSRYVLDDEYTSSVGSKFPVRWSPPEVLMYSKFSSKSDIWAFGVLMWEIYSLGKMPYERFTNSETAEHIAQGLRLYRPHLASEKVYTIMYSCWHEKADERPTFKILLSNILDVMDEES

SMILES | DC50 [1] | IC50 [2]
Cc1cc(-c2ncnc3[nH]c(-c4ccc(C5CCN(CCC6CCN(c7ccc(N8CCC(=O)NC8=O)c(C)n7)CC6)CC5)cc4)cc23)ccc1CNC(=O)c1nc(C(C)(C)C)no1 [Example 13, 3-(tert-butyl)-N-(4-(6-(4-(1-(2-(1-(5-(2,4-dioxotetrahydropyrimidin-1(2H)-yl)-6-methylpyridin-2-yl)piperidin-4-yl)ethyl)piperidin-4-yl)phenyl)-7H-pyrrolo[2,3-d]pyrimidin-4-yl)-2-methylbenzyl)-1,2,4-oxadiazole-5-carboxamide] | 2.3 nM | 1860 nM
Cc1cc(-c2ncnc3[nH]c(-c4ccc(N5CCN(CC6CCN(c7ccc(N8CCC(=O)NC8=O)cc7)CC6)CC5)nc4)cc23)ccc1[C@@H](C)NC(=O)c1nc(C(C)(C)C)no1 [Example 14, (R)-3-(tert-butyl)-N-(1-(4-(6-(6-(4-((1-(4-(2,4-dioxotetrahydropyrimidin-1(2H)-yl)phenyl)piperidin-4-yl)methyl)piperazin-1-yl)pyridin-3-yl)-7H-pyrrolo[2,3-d]pyrimidin-4-yl)-2-methylphenyl)ethyl)-1,2,4-oxadiazole-5-carboxamide] | 0.72 nM | > 10000 nM
Cc1cc(-c2ncnc3[nH]c(-c4ccc(C5CCN(CCC6CCN(c7ccc(N8CCC(=O)NC8=O)c(F)c7)CC6)CC5)cc4)cc23)ccc1CNC(=O)c1nc(C(C)(C)C)no1 [Example 15, 3-(tert-butyl)-N-(4-(6-(4-(1-(2-(1-(4-(2,4-dioxotetrahydropyrimidin-1(2H)-yl)-3-fluorophenyl)piperidin-4-yl)ethyl)piperidin-4-yl)phenyl)-7H-pyrrolo[2,3-d]pyrimidin-4-yl)-2-methylbenzyl)-1,2,4-oxadiazole-5-carboxamide] | 1 nM | 1230 nM
CC(C)(C)c1noc(C(=O)NCc2ccc(-c3ncnc4[nH]c(-c5cnn(C6CCN(CC7CCN(c8ccc(N9CCC(=O)NC9=O)cc8)CC7)CC6)c5)cc34)cc2F)n1 [Example 16, 3-(tert-butyl)-N-(4-(6-(1-(1-((1-(4-(2,4-dioxotetrahydropyrimidin-1(2H)-yl)phenyl)piperidin-4-yl)methyl)piperidin-4-yl)-1H-pyrazol-4-yl)-7H-pyrrolo[2,3-d]pyrimidin-4-yl)-2-fluorobenzyl)-1,2,4-oxadiazole-5-carboxamide] | 0.55 nM | > 10000 nM
Cc1cc(-c2ncnc3[nH]c(-c4ccc(C5CCN(CC6CCN(c7ccc8c(c7)CN(C7CCC(=O)NC7=O)C8=O)CC6)CC5)cc4)cc23)ccc1CNC(=O)c1nc(C(C)(C)C)no1 (centres unmarked) [Example 17, 3-(tert-butyl)-N-(4-(6-(4-(1-((1-(2-(2,6-dioxopiperidin-3-yl)-1-oxoisoindolin-5-yl)piperidin-4-yl)methyl)piperidin-4-yl)phenyl)-7H-pyrrolo[2,3-d]pyrimidin-4-yl)-2-methylbenzyl)-1,2,4-oxadiazole-5-carboxamide] | 3.2 nM | > 10000 nM
Cc1cc(-c2ncnc3[nH]c(-c4ccc(N5CCN(CC6CCN(c7ccc(N8CCC(=O)NC8=O)cc7)CC6)CC5)cc4)cc23)ccc1CNC(=O)c1nc(C(C)(C)C)no1 [Example 18, 3-(tert-butyl)-N-(4-(6-(4-(4-((1-(4-(2,4-dioxotetrahydropyrimidin-1(2H)-yl)phenyl)piperidin-4-yl)methyl)piperazin-1-yl)phenyl)-7H-pyrrolo[2,3-d]pyrimidin-4-yl)-2-methylbenzyl)-1,2,4-oxadiazole-5-carboxamide] | 1.7 nM | > 10000 nM
Cc1cc(-c2ncnc3[nH]c(-c4ccc(N5CCN(CC6CCN(c7ccc(N8CCC(=O)NC8=O)cc7)CC6)CC5)cn4)cc23)ccc1[C@@H](C)NC(=O)c1nc(C(C)(C)C)no1 [Example 19, (R)-3-(tert-butyl)-N-(1-(4-(6-(5-(4-((1-(4-(2,4-dioxotetrahydropyrimidin-1(2H)-yl)phenyl)piperidin-4-yl)methyl)piperazin-1-yl)pyridin-2-yl)-7H-pyrrolo[2,3-d]pyrimidin-4-yl)-2-methylphenyl)ethyl)-1,2,4-oxadiazole-5-carboxamide] | 0.72 nM | > 10000 nM

Now from value to compound, other results behind:

DC50 [1] | SMILES | IC50 [2]
1.4 nM | Cc1cc(-c2ncnc3[nH]c(-c4ccc(N5CCN(CC6CCN(c7ccc(N8CCC(=O)NC8=O)cc7)CC6)CC5)cc4)cc23)ccc1[C@@H](C)NC(=O)c1nc(C(C)(C)C)no1 [Example 20, (R)-3-(tert-butyl)-N-(1-(4-(6-(4-(4-((1-(4-(2,4-dioxotetrahydropyrimidin-1(2H)-yl)phenyl)piperidin-4-yl)methyl)piperazin-1-yl)phenyl)-7H-pyrrolo[2,3-d]pyrimidin-4-yl)-2-methylphenyl)ethyl)-1,2,4-oxadiazole-5-carboxamide] | > 10000 nM
1.7 nM | C[C@@H](NC(=O)c1nc(C(C)(C)C)no1)c1ccc(-c2ncnc3[nH]c(-c4ccc(N5CCN(CC6CCN(c7ccc(N8CCC(=O)NC8=O)cc7)CC6)CC5)cc4)cc23)cc1F [Example 21, (R)-3-(tert-butyl)-N-(1-(4-(6-(4-(4-((1-(4-(2,4-dioxotetrahydropyrimidin-1(2H)-yl)phenyl)piperidin-4-yl)methyl)piperazin-1-yl)phenyl)-7H-pyrrolo[2,3-d]pyrimidin-4-yl)-2-fluorophenyl)ethyl)-1,2,4-oxadiazole-5-carboxamide] | > 10000 nM
2.3 nM | Cc1cc(-c2ncnc3[nH]c(-c4ccc(C5CCN(CCC6CCN(c7ccc(N8CCC(=O)NC8=O)c(C)c7)CC6)CC5)cc4)cc23)ccc1CNC(=O)c1nc(C(C)(C)C)no1 [Example 22, 3-(tert-butyl)-N-(4-(6-(4-(1-(2-(1-(4-(2,4-dioxotetrahydropyrimidin-1(2H)-yl)-3-methylphenyl)piperidin-4-yl)ethyl)piperidin-4-yl)phenyl)-7H-pyrrolo[2,3-d]pyrimidin-4-yl)-2-methylbenzyl)-1,2,4-oxadiazole-5-carboxamide] | 1560 nM
0.87 nM | CC(C)(C)c1noc(C(=O)NCc2ccc(-c3ncnc4[nH]c(-c5ccc(C6CCN(CC7CCN(c8ccc(N9CCC(=O)NC9=O)cc8)CC7)CC6)cc5)cc34)cc2F)n1 [Example 23] | > 10000 nM
4.8 nM | Cc1cc(-c2ncnc3[nH]c(-c4ccc(C5CCN(CCC6CCN(c7ccc(N8CCC(=O)NC8=O)c(Cl)c7)CC6)CC5)cc4)cc23)ccc1CNC(=O)c1nc(C(C)(C)C)no1 [Example 24, 3-(tert-butyl)-N-(4-(6-(4-(1-(2-(1-(3-chloro-4-(2,4-dioxotetrahydropyrimidin-1(2H)-yl)phenyl)piperidin-4-yl)ethyl)piperidin-4-yl)phenyl)-7H-pyrrolo[2,3-d]pyrimidin-4-yl)-2-methylbenzyl)-1,2,4-oxadiazole-5-carboxamide] | 4650 nM
1.4 nM | Cc1cc(-c2ncnc3[nH]c(-c4ccc(N5CCN(CC6CCN(c7ccc(N8CCC(=O)NC8=O)cc7)CC6)CC5)cc4)nc23)ccc1[C@@H](C)NC(=O)c1nc(C(C)(C)C)no1 [Example 25, (R)-3-(tert-butyl)-N-(1-(4-(8-(4-(4-((1-(4-(2,4-dioxotetrahydropyrimidin-1(2H)-yl)phenyl)piperidin-4-yl)methyl)piperazin-1-yl)phenyl)-9H-purin-6-yl)-2-methylphenyl)ethyl)-1,2,4-oxadiazole-5-carboxamide] | > 10000 nM

Source: patent publication US20230167118A1, “DEGRADATION OF BRUTON'S TYROSINE KINASE (BTK) BY CONJUGATION OF BTK INIDBITORS WITH E3 LIGASE LIGAND AND METHODS OF USE” (BEIGENE, LTD., priority 2020, published 2023)
